“Also recorded” adds a separate entry of the source.
How the values were obtained:
hERG current = target: T1, hERG current (Homo sapiens, UniProt Q12809); test: In vitro hERG cardiotoxicity assay in human embryonic kidney cells; assay type: cell-based
T1 construct: expressed in transfected cells; host or cells: human embryonic kidney cells
Protocol: The effects of SRP-001 on hERG current amplitude at physiologic temperatures were evaluated over a nominal concentration range of 0.1 μM to 100M. A vehicle group (10% DMSO) was included in the study for comparison, and dofetilide (10 nM) was used as a reference substance. The vehicle and positive controls indicated appropriate sensitivity of the test systems. […] Next, the potential acute effects of oral SRP-001 on cardiovascular function in conscious telemetered beagle dogs was done using a Latin Square design; 4 male naïve beagle dogs each received vehicle (10% DMSO: 10% labrasol: 80% PEG400) and three doses (30, 90, and 150 mg/kg) of SRP-001 nanosuspension by oral gavage. […] A single dose was administered on the day of dosing, and a washout period of seven days was allowed between doses. One-min means of hemodynamic parameters, as well as ECG parameters and body temperature, were measured for a period of at least 24 h. One-min tracings of the ECGs were obtained at 15 min prior to dosing and at 30 min, 1, 2, 4, 8, 12, and 24 h post-dose. Qualitative evaluation of the ECGs was done by a board-certified veterinary cardiologist.

[1] = tested on: Salmonella typhimurium strains and Escherichia coli strain WP2 uvrA; test: Ames reverse mutation assay; assay type: cell-based
Protocol: To further evaluate the potential genotoxicity of SRP-001 and determine the validity of the in vitro findings, a second in vivo assay, a GLP-compliant Comet assay, was conducted in accordance with ICH S2(R1) Guidance on Genotoxicity Testing and Data Interpretation for Pharmaceuticals Intended for Human Use. […] SRP-001 was tested to evaluate its mutagenic potential by measuring its ability to induce reverse mutations at selected loci of several strains of Salmonella typhimurium (S. typhimurium) and at the tryptophan locus of Escherichia coli (E. coli) strain WP2 uvrA in the presence and absence of an exogenous metabolic activation system (Bioreliance, Rockville, MD USA). Dimethyl sulfoxide (10% DMSO) was used as the vehicle. The dose levels tested in the preliminary toxicity assay were 6.67, 10.0, 33.3, 66.7, 100, 333, 667, 1000, 3333, and 5000 μg per plate. No precipitate was observed. […] The dose levels tested in the mutagenicity assay were 100, 333, 667, 1000, 3333, and 5000 μg per plate. […] In the preliminary toxicity assay, the doses tested ranged from 0.0405 to 405 μg/mL (1 mM), which was the limit dose for this assay (Bioreliance, Rockville, MD USA).

Male rats = test: Rat micronucleus in vivo study
Protocol: The induction of numerical aberrations was within the 95% control limit of the historical negative control data. […] Approximately 48 h after the second dose administration, peripheral blood was collected for flow cytometric analysis of micronuclei. There was no significant increase in the incidence of micronuclei in the test article-dosed animals compared to the concurrent vehicle control. The vehicle control value was compatible with the historical range of % micronucleated reticulocytes (MnRETs). There was a statistically significant increase in MnRETs in the positive control compared to the concurrent vehicle control. […] The vehicle control was 10% Labrasol, 10% DMSO, and 80% PEG400. The positive control for the Comet assay, ethyl methanesulfonate (EMS), was orally administered at 200 mg/kg/dose for two consecutive days at a dose volume of 10 mL/kg/dose. […] Animals were euthanized 3-4 h after the last dose administration. The liver and glandular stomach were collected and processed for comet evaluation.

dog = details: in vivo
Protocol: To determine the appropriate doses, maximum tolerated dose studies (non-GLP) were conducted prior to the definitive GLP systemic toxicity studies. SRP-001 was evaluated by a full battery of GLP-compliant toxicity studies. Systemic toxicity was evaluated in Sprague-Dawley rats and Beagle dogs by oral administration over 28 days (FIG. 24 and FIGS. 27-28, Table 2). […]

[2] = Stability of API and oral nanosuspension; assay type: physicochemical
Protocol: The drug therapeutic candidate is manufactured in a two-step process (Latitude Pharmaceuticals, Inc., San Diego, CA USA). First, SRP-001 is jet milled. Second, the milled API is dispersed in a solution comprising 1% hydroxypropyl cellulose (1% HPC) and sterile water for injection and subjected to wet milling. The target particle size is approximately D90 0.15 μm. […] An oral nanoparticle suspension containing 100 mg/mL SRP-001 in aqueous 1% HPC preserved with 0.1% sodium benzoate was manufactured for use in nonclinical studies as Lot LPI2021028 and stored at 5° C.±3° C. […] The same formulation as above was manufactured under cGMP for use in clinical studies as Lot LPI2021031 and stored at 5° C.±3° C. […] This lot has been placed on stability at 5° C., 25° C./60% RH, and 40° C./75% RH. Finally, an appearance-matched placebo consisting of 2% microcrystalline cellulose in aqueous 1% HPC preserved with 0.1% sodium benzoate and 0.05% EDTA disodium dihydrate was manufactured under cGMP for use in clinical studies. The above oral suspensions were manufactured by Latitude Pharmaceuticals Inc. (San Diego, CA, USA).

T1 sequence (Q12809 whole entry): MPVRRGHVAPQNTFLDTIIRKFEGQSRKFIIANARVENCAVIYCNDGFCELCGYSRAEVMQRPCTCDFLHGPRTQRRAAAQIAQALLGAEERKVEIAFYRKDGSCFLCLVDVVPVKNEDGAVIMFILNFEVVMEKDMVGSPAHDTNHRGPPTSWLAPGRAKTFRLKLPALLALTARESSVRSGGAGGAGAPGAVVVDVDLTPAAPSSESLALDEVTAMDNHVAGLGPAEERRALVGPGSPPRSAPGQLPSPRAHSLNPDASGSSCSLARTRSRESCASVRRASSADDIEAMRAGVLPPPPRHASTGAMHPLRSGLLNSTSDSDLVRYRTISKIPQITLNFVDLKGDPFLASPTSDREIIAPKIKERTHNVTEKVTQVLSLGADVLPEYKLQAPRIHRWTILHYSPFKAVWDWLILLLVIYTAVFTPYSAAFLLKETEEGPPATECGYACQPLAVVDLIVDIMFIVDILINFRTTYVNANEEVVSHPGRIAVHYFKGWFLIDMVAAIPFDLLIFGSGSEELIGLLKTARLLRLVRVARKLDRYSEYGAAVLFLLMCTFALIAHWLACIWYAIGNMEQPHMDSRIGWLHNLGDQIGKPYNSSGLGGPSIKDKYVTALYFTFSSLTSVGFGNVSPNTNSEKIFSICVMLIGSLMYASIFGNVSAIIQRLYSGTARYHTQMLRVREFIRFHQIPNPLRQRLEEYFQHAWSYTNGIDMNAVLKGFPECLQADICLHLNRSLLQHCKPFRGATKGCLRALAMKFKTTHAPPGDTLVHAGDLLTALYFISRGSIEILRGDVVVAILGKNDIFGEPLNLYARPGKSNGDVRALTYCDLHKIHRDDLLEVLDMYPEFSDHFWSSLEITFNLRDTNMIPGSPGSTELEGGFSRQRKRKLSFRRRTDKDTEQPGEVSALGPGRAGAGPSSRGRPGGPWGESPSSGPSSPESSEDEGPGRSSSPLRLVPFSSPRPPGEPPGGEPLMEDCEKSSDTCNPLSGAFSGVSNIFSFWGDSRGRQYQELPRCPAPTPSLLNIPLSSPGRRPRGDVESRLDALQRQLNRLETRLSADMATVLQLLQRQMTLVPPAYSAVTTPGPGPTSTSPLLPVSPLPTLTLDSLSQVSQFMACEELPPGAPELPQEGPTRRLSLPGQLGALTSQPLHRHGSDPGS

Question: For CCN(CC)C(=O)c1ccccc1S(=O)(=O)NCC(=O)Nc1ccc(O)cc1 [SRP-001, N,N-diethyl-2-[[2-(4-hydroxyanilino)-2-oxo-ethyl]sulfamoyl]benzamide], which “hERG signal / blocker class” value (hERG current; 0.1 μM to 100 μM) is on record?
Answer: weak blocker of hERG current; also recorded: absent relevant signal

Question: What about the “block of hERG current” value (hERG current; 100 μM, highest concentration tested, physiologic temperatures) of the same compound?
Answer: 21.4±3.9%

Question: And the “mutagenic response (reverse mutations)” value ([1]; 100-5000 μg per plate, with and without S9)?
Answer: No positive mutagenic responses were observed

Question: And the precipitate and toxicity ([1]; mutagenicity assay, up to 5000 μg per plate)?
Answer: Neither precipitate nor toxicity was observed

Question: And the “dose with toxicity (reduction in the revertant count)” value ([1]; preliminary toxicity assay, TA1537 and WP2 uvrA, absence of S9)?
Answer: 5000 μg per plate

Question: And the “incidence of micronuclei / clastogenicity” value (Male rats; 500, 1,000 and 2,000 mg/kg/d oral, two days)?
Answer: negative (non-clastogenic)

Question: And the “% RETs” value (Male rats; treatment groups)?
Answer: Statistically significant decreases in % RETs

Question: And the “mortality after single doses” value (dog)?
Answer: did not result in any mortality

Question: What about the “API stable for” value ([2]; 25° C./60% RH) of the same compound?
Answer: at least 9 months

Question: What about the “API stable for” value ([2]; 40° C./75% RH) of the same compound?
Answer: ≥ 6 months
